# Measured values: patent US10933077B2, “TLR4 inhibitors for the treatment of human infectious and inflammatory disorders” (UNIVERSITY OF PITTSBURGH—OF THE COMMONWEALTH SYSTEM OF …, priority 2010, dated 2021)
# Target: T1, TLR4 (Mus musculus, UniProt Q9JHF9+Q9QUK6)
# T1 construct: Swiss Webster (CFW) and NFkB-luciferase reporter mice were obtained from The Jackson Laboratory; tissue The Jackson Laboratory; host or cells: whole live Swiss Webster (CFW) mice
# T1 sequence (Q9QUK6 26-835): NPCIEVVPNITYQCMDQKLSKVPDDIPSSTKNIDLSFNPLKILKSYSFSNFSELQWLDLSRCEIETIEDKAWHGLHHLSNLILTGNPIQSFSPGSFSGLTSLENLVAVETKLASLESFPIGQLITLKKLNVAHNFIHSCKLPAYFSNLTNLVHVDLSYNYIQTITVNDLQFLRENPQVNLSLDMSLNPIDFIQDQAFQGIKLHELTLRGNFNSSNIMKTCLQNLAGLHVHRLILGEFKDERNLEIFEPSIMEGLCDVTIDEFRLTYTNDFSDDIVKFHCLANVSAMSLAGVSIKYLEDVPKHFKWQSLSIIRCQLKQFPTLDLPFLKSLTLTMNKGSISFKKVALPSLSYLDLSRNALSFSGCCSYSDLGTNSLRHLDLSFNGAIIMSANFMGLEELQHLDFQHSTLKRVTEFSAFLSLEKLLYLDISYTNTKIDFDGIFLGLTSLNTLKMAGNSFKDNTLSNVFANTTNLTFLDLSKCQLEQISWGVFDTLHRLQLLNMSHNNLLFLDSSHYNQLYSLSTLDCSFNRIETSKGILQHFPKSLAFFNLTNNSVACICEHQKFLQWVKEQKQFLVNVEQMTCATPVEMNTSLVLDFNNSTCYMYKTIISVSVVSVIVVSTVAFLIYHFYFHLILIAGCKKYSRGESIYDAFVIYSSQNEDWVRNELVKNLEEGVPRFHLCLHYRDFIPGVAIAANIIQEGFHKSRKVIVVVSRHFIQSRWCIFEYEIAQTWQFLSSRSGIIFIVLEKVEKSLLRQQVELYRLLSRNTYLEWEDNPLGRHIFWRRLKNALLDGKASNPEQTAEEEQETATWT
# T1 sequence (Q9JHF9 19-160): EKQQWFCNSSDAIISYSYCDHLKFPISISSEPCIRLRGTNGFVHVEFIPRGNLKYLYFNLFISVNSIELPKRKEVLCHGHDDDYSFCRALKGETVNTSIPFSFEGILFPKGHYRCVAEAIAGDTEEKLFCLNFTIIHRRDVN
# Assay: CFW endotoxemia assay (observation of behavior and phenotype after LPS)
# Format: in vivo
# Conditions: CFW mice, 20 nanomoles compound i.p. 30 minutes prior to LPS 2 mg/kg, 6 hours; listed as “Hits”
# Procedure: Compound preparation and delivery. All 65 identified compounds were received in solid form and stored at 4° C. until use. Stock solutions of each compound were made by dissolving the appropriate amount of each compound in dimethyl sulfoxide (DMSO) to yield a concentration of 10 mM. Immediately prior to injection into experimental animals, the compounds were diluted to an experimental concentration of 100 uM in phosphate-buffered saline (PBS). Total concentration of DMSO in the final diluted drug was 1%. Compounds were closely examined to insure that no precipitate formed prior to injection and were stored on ice until injection. All compounds were given via intraperitoneal (i.p.) injection in a total volume of 200 ul using a 1 cc syringe and 27 gauge needle. In all experiments listed below, the compounds were delivered to the experimental mice 30 minutes prior to injection with lipopolysaccharide (LPS) to induce endotoxemia. Control animals not receiving compound received 1% DMSO dissolved in PBS. Following drug injection, the mice were observed closely in their cages for signs of immediate toxicity or adverse reaction to the drug, including but not limited to piloerection, tachypnea, bleeding, abnormal or aggressive behavior, signs of altered mental status, and level of activity.
# Induction of endotoxemia. All mice were housed and cared for at the Rangos Research Center, Children's Hospital of Pittsburgh (Pittsburgh, Pa.). All experiments were approved by the Children's Hospital of Pittsburgh Animal Care Committee and by the Institutional Review Board of the University of Pittsburgh. Swiss Webster (CFW) and NFkB-luciferase reporter mice were obtained from The Jackson Laboratory. Throughout the course of all experiments, mice were housed 4 per cage with access to food, water, and standard bedding. Endotoxemia was induced in all experiments by i.p. injection of LPS (Escherichia coli 0111:B4 purified by gel filtration chromatography, >99% pure, Sigma-Aldrich) at a dose of 2 mg/kg for 6 hours. At the end of each experiment, all animals were euthanized by CO2 hypoxia and cervical dislocation.
# CFW endotoxemia assay. In order to effectively screen the entire compound list, the remaining compounds (7-60) were screened in a model of endotoxemia using CFW mice. Three separate experiments were performed: First, Compound 7 along with a repeat of compound 4 (n=3 mice per compound, mice age 5 weeks) were tested. Controls were saline injection alone (n=1), LPS 2 mg/kg 6 hrs (n=2). Second, compounds 3, 4, 6, 8-32 were tested (n=1 mouse each, 3 week old mice). Controls were saline injection alone (n=1), LPS 2 mg/kg 6 hrs (n=2), LPS 10 mg/kg 6 hrs (n=2), Bay 11 pretreatment 20 mg/kg for 30 minutes prior to LPS 2 mg/kg 6 hrs. Third, compounds 8, 16, 33-60 were tested (n=1 mouse each, 3 week old mice). Controls were saline injection alone (n=1), LPS 2 mg/kg 6 hrs (n=2), Bay 11 pretreatment 20 mg/kg for 30 minutes prior to LPS 2 mg/kg 6 hrs. Following 6 hours of endotoxemia, mice from the second and third experiments were observed within their cages and videotaped to document behavior and phenotypic differences to assess for an inhibitory effect of compound pretreatment on the effects of LPS. Mice were identified by a number previously placed using permanent marker on their tails. The degree of piloerection, tachypnea, location in the cage (center of cage versus corners), degree of activity, and behavior relative to other animals was observed and documented via video for each mouse.
# Less activity, tachypnea, and piloerection are considered symptomatic of endotoxemia, so a decrease in these is consistent with TLR inhibition by the administered compound. Note that compounds listed as negatives may still be T4Ics at other concentrations or conditions.
row,Structure (SMILES),Observation (Compound “Hits”)
1,"O=P(O)(O)OCC1OC(OP(=O)(O)O)C(O)[C@H](O)[C@@H]1O (stereo partly drawn) [Compound 8, cyclohexanamine compound with 1,6-di-O-phosphono-beta-D-glycero-hexopyranose (4:1) hydrate]","More mobile, less piloerection"
2,"CC(=O)N[C@H]1[C@H](OC[C@H]2O[C@@H]3OC(C)(C)O[C@@H]3[C@H]3OC(C)(C)O[C@H]32)O[C@H](CO)[C@@H](O)[C@@H]1O [Compound 21, N-((2R,3R,4R,5S,6R)-4,5-dihydroxy-6-(hydroxymethyl)-2-(((3aR,5R,5aS,8aS,8bR)-2,2,7,7-tetramethyltetrahydro-3aH-bis[1,3]dioxolo[4,5-b:4′,5′-d]pyran-5-yl)methoxy)tetrahydro-2H-pyran-3-yl) acetamide]","More active, crawled over other mice, less piloerection"
3,"CC(=O)NC1C(OC(C)C(=O)O)[C@H](O)C(CO)O[C@H]1O (stereo partly drawn) [Compound 30, 2-((2R,5S)-3-acetamido-2,5-dihydroxy-6-(hydroxymethyl)tetrahydro-2H-pyran-4-yloxy)propanoic acid]","Less tachypnea, more mobile"
4,"CCCCCCO[C@@H]1O[C@H](COC(C)=O)[C@@H](OC(C)=O)[C@H](OC(C)=O)[C@H]1NC(C)=O [Compound 36, hexyl 3,4,6-tri-O-acetyl-2-(acetylamino)-2-deoxy-beta-D-glucopyranoside]","More active, crawled over other mice, less piloerection"
5,"CC(=O)N[C@H]1[C@H](O[C@H]2[C@H](O)[C@@H](O)[C@H](O[C@H]3[C@H](O)[C@@H](CO)OC(O)[C@@H]3NC(C)=O)O[C@@H]2C(=O)O)O[C@H](CO)[C@@H](O)[C@H]1O[C@H]1O[C@H](C(=O)O)[C@@H](O)[C@H](O)[C@H]1O (stereo partly drawn) [Compound 42, 2-(acetylamino)-3-O-{4-O-[2-(acetylamino)-2-deoxy-3-O-alpha-D-xylo-hexopyranuronosyl-beta-D-ribo-hexopyranosyl]-beta-D-xylo-hexopyranuronosyl}-2-deoxy-D-glucopyranose]","Less tachypnea, more mobile"
6,"CC(=O)CC1OC(OC2C(NC(C)=O)C(O)OC(CO)C2OS(=O)(=O)O)C(O)C(O)C1O [Compound 43, 2-(acetylamino)-2-deoxy-3-O-(6,8-dideoxy-beta-L-glycero-octopyranosyl-7-ulose)-4-O-sulfo-L-erythro-hexopyranose]","More active, crawled over other mice, less piloerection"
7,"CC(=O)NC1C(O)OC(CO)C(OC2OC(C)C(O)C(O)C2O)C1OC1OC(CO)C(O)C(O)C1O (stereo not shown) [Compound 45, 2-(acetylamino)-2-deoxy-4-O-(6-deoxyhexopyranosyl)-3-O-hexopyranosylhexopyranose]","More active, crawled over other mice, less piloerection"
8,"C=CCO[C@@H]1O[C@H](COC(C)=O)[C@H](OC(C)=O)[C@H](OC(C)=O)[C@H]1NC(C)=O [Compound 47, allyl 3,4,6-tri-O-acetyl-2-(acetylamino)-2-deoxy-beta-D-lyxo-hexopyranoside]","More active, crawled over other mice, less piloerection"

# Same assay, conditions: CFW mice, 20 nanomoles compound i.p. 30 minutes prior to LPS 2 mg/kg, 6 hours; listed as “Negatives”
row,Structure (SMILES),Observation (Compound “Negatives”)
1,"CC(=O)N[C@H]1[C@H](O[C@H]2[C@H](O)[C@@H](NC(C)=O)C(O)O[C@@H]2CO)O[C@H](CO)[C@@H](O[C@@H]2O[C@H](CO)[C@@H](O)[C@H](O)[C@H]2NC(C)=O)[C@@H]1O (stereo partly drawn) [Compound 1, 2-(acetylamino)-4-O-{2-(acetylamino)-4-O-[2-(acetylamino)-2-deoxy-beta-D-glucopyranosyl]-2-deoxy-beta-D-glucopyranosyl}-2-deoxy-D-glucopyranose]","More tachypnea, rigors"
2,"CCCCO[C@@H]1O[C@H](CO)[C@@H](OC)[C@H](OC)[C@H]1NC(C)=O [Compound 14, butyl 2-(acetylamino)-2-deoxy-3,4-di-O-methyl-beta-D-glucopyranoside]","Refused to move from corner, very tachpneic"
3,"COC(=O)C1(OC)CC(O)C(NC(C)=O)C(C(O)C(O)CO)O1 [Compound 25, dimethyl 5-(acetylamino)-3,5-dideoxy-D-erythro-non-2-ulopyranosidonate]","More piloerection, less mobile than other in the cage"
4,"CC(=O)N[C@@H]1[C@@H](O)[C@@H](O)[C@@H](CO)O[C@@H]1O [Compound 31, 2-(acetylamino)-2-deoxy-alpha-D-lyxo-hexopyranose]","More tachypneic, more piloerection"
5,"CC(=O)N[C@@H]1C[C@H](O)[C@@H](CO)O[C@H]1O[C@H]1[C@H](O)[C@@H](O)[C@H](O)O[C@@H]1C(=O)[O-].[Na+] [Compound 32, sodium (2S,3S,4R,5R,6R)-3-((2S,3R,5S,6R)-3-acetamido-5-hydroxy-6-(hydroxymethyl)tetrahydro-2H-pyran-2-yloxy)-4,5,6-trihydroxytetrahydro-2H-pyran-2-carboxylate]","More tachypneic, more piloerection"
6,"CC(=O)N[C@H]1[C@H](OC[C@H]2O[C@@H]3OC4(CCCCC4)O[C@@H]3[C@H]3OC4(CCCCC4)O[C@H]32)O[C@H](CO)[C@@H](O)[C@@H]1O [Compound 37, N-[(2R,3R,4R,5S,6R)-2-[(1′S,2′R,6′R,8′R,9′S)-dispiro[cyclohexane-1,4′-[3,5,7,10,12]pentaoxatricyclo[7.3.0.0^{2,6}]dodecane-11′,1″-cyclohexane]-8′-ylmethoxy]-4,5-dihydroxy-6-(hydroxymethyl)oxan-3-yl]acetamide]","More tachypneic, less active"
7,"CC(=O)N[C@H]1C(O)O[C@H](CO)[C@@H](O)[C@@H]1O[C@H](C)C(=O)N[C@@H](C)C(=O)N[C@H](CCC(=O)O)C(N)=O (stereo partly drawn) [Compound 40, (4R)-4-((2S)-2-((2R)-2-((3R,4R,5S,6R)-3-acetamido-2,5-dihydroxy-6-(hydroxymethyl)tetrahydro-2H-pyran-4-yloxy)propanamido)propanamido)-5-amino-5-oxopentanoic acid]","Less active, huddled in corner"
8,"CC(=O)N[C@H]1[C@@H](OP(=O)([O-])OP(=O)([O-])OC[C@H]2O[C@@H](n3ccc(=O)[nH]c3=O)[C@H](O)[C@@H]2O)O[C@H](CO)[C@@H](O)[C@@H]1O.[Na+].[Na+] [Compound 41, Uridine 5′-diphospho-N-acetylglucosamine sodium salt]","Less active, huddled in corner"
